Data published in patent publication US4212866A, “Pharmaceutically active derivatives of 9-[3-(4-amino-piperidino)-propyl]-adenines” (Boehringer Mannheim GmbH, priority 1978, dated 1980).

What follows are compounds tested on passive cutaneous anaphylactic reaction (assay: inhibition of the passive cutaneous anaphylactic (PCA) reaction in rats induced by reaginic antibodies to egg albumin). Details: Rattus norvegicus, iv, 0.75 mg/kg, intravenously immediately before antigen.
Type: in vivo
Protocol: Diethylcarbamazin, i.e. 1-diethylcarbamoyl-4-methylpiperazine, was used as a comparison compound. Specifically, tests were run as follows:
Serum containing reaginic (IgE-like) antibody to egg albumin was prepared by injecting rats intramuscularly with 0.1 ml of a solution of the antigen (10 mg/ml) in saline together with 0.5 ml of Bordetella pertussis vaccine (Behring; 2×10^10 organisms/ml). 9-14 Days later the animals were bled from the abdominal aorta; the serum was pooled and stored at -20° C. until required. The titer of the serum, i.e. the highest dilution inducing passive cutaneous anaphylaxis (PCA) in the rat following a 48-hour latent period, was between 1:8 and 1:32. For use in these experiments the serum was diluted 1:24.
The animals were anesthetized with 2,2-dichloro-1,1-difluoroethyl-methyl ether, sold under the trademark Penthrane, and were sensitized by injecting 0.1 ml of the antiserum into the shaved abdominal flanks. After 48 hours for reaginic PCA, the animals were given an intravenous injection of 1 ml of saline solution containing 0.5% by weight of egg albumin and 0.25% by weight of Evans Blue.
After having killed and exsanguinated the animals, the size in square millimeters and the intensity, in arbitary scores, of the resulting blue spot were determined. The product of these two parameters was used to determine the degree of the reaction and the degree of reaction with no active material was taken as the standard against which to measure % inhibition of the anaphylactic reaction.
6 Animals were used per dose level and for control.
The test material was injected intravenously immediately before the antigen, using a solution in water containing 0.5% HCl and 2% of dimethylformamide. For comparative purposes there was also tested diethylcarbamoyl-4-methylpiperazine sold under the tradename Diethylcarbamazin. The volumes of the injections were varied to give the indicated dosage of the active material. The results obtained were as follows:
PCA Reaction in Rats Induced by Reaginic Antibodies
(Ovalbumin 2×cryst, and Bord. pertussis 2×10^10) Active material applied intravenously immediately before antigen.

Row | SMILES | inhibition in vivo at 0.75 mg/kg
1 | O=C(NC1CCN(CCCn2cnc3c(NCCO)ncnc32)CC1)c1ccccc1 [Example 2j, N^6-(2-Hydroxyethyl)-9-[3-(4-benzamido-piperidino)-propyl] adenine] | 44%
2 | CCCCNc1ncnc2c1ncn2CCCN1CCC(NC(=O)c2ccccc2)CC1 [Example 2k, N^6-n-Butyl-9-[3-(4-Benzamido-piperidino)-propyl]-adenine] | 41%

Same assay, conditions: Rattus norvegicus, iv, 1.5 mg/kg, intravenously immediately before antigen

Row | SMILES | inhibition in vivo at 1.5 mg/kg
3 | Nc1ncnc2c1ncn2CCCN1CCC(NC(=O)c2ccc(F)cc2)CC1 [Example 2b, 9-{3-[4-(4-Fluorobenzamido)-piperidino]-propyl}-adenine] | 65%
4 | Cc1ccccc1C(=O)NC1CCN(CCCn2cnc3c(N)ncnc32)CC1 [Example 2e, 9-{3-[4-(2-Methyl-benzamido)-piperidino]-propyl}-adenine] | 39%
5 | Cc1ccc(C(=O)NC2CCN(CCCn3cnc4c(N)ncnc43)CC2)cc1 [Example 2f, 9-{-[4-(4-Methyl-benzamido)-piperidio]-propyl}-adenine] | 74%
6 | CN(C)c1ncnc2c1ncn2CCCN1CCC(NC(=O)c2ccccc2)CC1 [Example 2l, 6-Dimethylamino-9-[3-(4-benzamido-piperidino)-propyl]-purine] | 43%
7 | O=C(NC1CCN(CCCn2cnc3c(N4CCCCC4)ncnc32)CC1)c1ccccc1 [Example 2m, 6-Piperidino-9-[3-(4-benzamido-piperidino)-propyl]-purine] | 36%
8 | Nc1ncnc2c1ncn2CCCN1CCC(NC(=O)c2ccc(Cl)cc2)CC1 [Example 4a, 9-{3-[4-(4-Chlorobenzamido)-piperidino]-propyl}-adenine] | 80%
9 | Nc1ncnc2c1ncn2CCCN1CCC(NC(=O)Cc2ccccc2)CC1 [Example 4d, 9-{3-[4-(Phenyl-acetamido)-piperidino]-propyl}-adenine] | 30%
10 | Nc1ncnc2c1ncn2CCCN1CCC(NC(=O)c2ccco2)CC1 [Example 4f, 9-{3-[4-(Furan-2-carbonylamido)-piperidino]-propyol}-adenine] | 44%

Same assay, conditions: Rattus norvegicus, iv, 60.0 mg/kg, intravenously immediately before antigen

Row | SMILES | inhibition in vivo at 60 mg/kg
11 | CCN(CC)C(=O)N1CCN(C)CC1 [Diethylcarbamazin, 1-diethylcarbamoyl-4-methylpiperazine, reference compound] | 58%
